In patent US20040132803A1, “Agent for the treatment of overactive bladder” (priority 2003, published 2004):

Experiments:
[1] = test system: slowly-inactivating A-type K^+ currents; test: Slowly-inactivating A-type K^+ currents in Fast Blue-labeled capsaicin-sensitive bladder afferent neurons; assay type: cell-based, rat; settings: 1.0 × 10^−6 mol/L
Experimental: (§1) Experiments were performed on adult female Sprague Dawley rats. First and second series of the experiments were performed, respectively, in unidentified DRG neurons and a specific population of DRG neurons innervating the urinary bladder. The population of DRG neurons that innervate the urinary bladder were labeled by retrograde axonal transport of the fluorescent dye, Fast Blue (4% w/v) (Polyloy, Gross Umstadt, Germany), injected into the wall of the bladder in halothane-anesthetized animals 7 days before the dissociation. The dye was injected with a 28 gauge needle at three to six sites on the dorsal surface of the organ (5-6 μL per site, total volume of 20-30 μL). Each injection site was washed with saline to minimize contamination of adjacent organs with the dye.
Freshly dissociated neurons from DRG were prepared from halothane-anesthetized animals. […]
Dye-labeled primary afferent neurons that innervate the urinary bladder were identified using an inverted phase-contrast microscope (Nikon, Tokyo, Japan) with fluorescent attachments (UV-1A filter; excitation wavelength, 365 nm). […] All recordings were made with an Axopatch-1D patch-clamp amplifier (Axon Instruments, Foster City, Calif.), and data were acquired and analyzed by PCLAMP software (Axon Instruments).
In voltage-clamp recordings, outward K^+ currents and inward Na^+ currents were measured. […]

dd male mice = settings: mouse, in vivo, po, 7 days
Experimental: The test compound was administered orally or intraperitoneally to 3 animals per group of dd male mice (body weight, 20±1 g). Minimum lethal dose (MLD) value was obtained by observing mortality on the 7th day after the administration.

[2] = test system: slowly-inactivating A-type K^+ currents; test: Voltage-clamp outward K^+ currents at HP −90 mV in unidentified DRG neurons; assay type: cell-based, rat; settings: for K^+ current at HP: −90 mV, relative value (before compound = 1): unidentified DRG neurons
Experimental: as §1
Freshly dissociated neurons from DRG were prepared from halothane-anesthetized animals. L6 and S1 DRG were dissected from animals and then dissociated in a shaking bath for 25 minutes at 35° C. with 5 mL DMEM (Sigma) containing 0.3 mg/mL trypsin (Type 3, Sigma), 1 mg/mL collagenase (Type 1, Sigma), and 0.1 mg/mL deoxyribonuclease (Type 4, Sigma). Trypsin inhibitor (Type 2a, Sigma) was then added thereto to neutralize the activity of trypsin. Individual DRG cell bodies were isolated by trituration and then plated on a poly-L-lysine-coated 35 mm Petri dishes.
Dye-labeled primary afferent neurons that innervate the urinary bladder were identified using an inverted phase-contrast microscope (Nikon, Tokyo, Japan) with fluorescent attachments (UV-1A filter; excitation wavelength, 365 nm). Gigaohm-seal whole-cell recordings were performed at room temperature (20-22° C.) on each labeled neuron in a culture dish that usually contained three to seven labeled cells among a few hundred unlabeled neurons. The internal solution contained (in mmol/L): KCl 140, CaCl2 1, MgCl2 2, EGTA 11, HEPES 10, Mg-ATP 2, and Tris-GTP 0.4 adjusted to pH 7.4 with KOH. Patch electrodes had resistances of 1-4 MΩ when filled with the internal solution. Neurons were superfused at a flow rate of 1.5 mL/minutes with an external solution containing (in mmol/L): NaCl 150, KCl 5, CaCl2 2.5, MgCl2 1, HEPES 10, and D-glucose 10, adjusted to pH 7.4 with NaOH. All recordings were made with an Axopatch-1D patch-clamp amplifier (Axon Instruments, Foster City, Calif.), and data were acquired and analyzed by PCLAMP software (Axon Instruments).
In voltage-clamp recordings, outward K^+ currents and inward Na^+ currents were measured. For the isolation of K^+ currents, the external solution was changed to one containing (in mmol/L): choline-Cl 150, KOH 5, CaCl2 0.03, HEPES 10, Mg(OH)2 3, and D-glucose 10, adjusted to pH 7.4 with HCl.
In first series of experiments using unidentified DRG neurons, outward K^+ currents were evoked by voltage steps to +60 mV, 800 ms long from a holding potentials of −90 mV, this was followed by a 1-second conditioning prepulse to −20 mV followed by a second pulse to +60 mV, identical to the first in the sequence. In the second series of experiments using Fast Blue-labeled bladder afferent neurons, slowly-inactivating A-type K^+ currents were isolated by. subtraction of outward K^+ currents activated from a holding potential of −40 mV (on the condition of inactivation of the majority of slowly-inactivating A-type K^+ currents) from those activated from a holding potential of −120 mV (on the condition of full activation of slowly-inactivating A-type K^+ currents). A compound was added cumulatively, starting with a lower concentration. Currents were measured at the maximum (peak) and normalized to control (before addition of the compound).

[3] = test system: rats with hypertrophic bladder; test: Inhibition of detrusor instability, cystometry in rats with partial urethra obstruction (hypertrophic bladder); assay type: in vivo, rat; settings: for micturition contraction, relative to before administration = 100 / pre-micturition contraction, relative to before administration = 100: rats with partial urethra obstruction
Description: Partial urethra obstruction was induced in rats.

[4] = 0.001 mg/kg p.o., after 3 hours
[5] = 0.001 mg/kg p.o., after 5 hours

## C[C@](O)(C(=O)Nc1cccc2c1C(=O)c1sccc1CS2(=O)=O)C(F)(F)F [Compound 1, (S)-(+)-N-(5,5-dioxido-10-oxo-4,10-dihydrothieno[3,2-c][l]benzothiepin-9-yl)-3,3,3-trifluoro-2-hydroxy-2-methylpropanamide]
[1]
  A-type IK (HP: −120 mV)-(HP: −40 mV), normalized to control: 1.26 ± 0.03
Dd male mice
  Minimum lethal dose (MLD): > 1,000 mg/kg
[2]; 1.0 × 10^−5 mol/L, in the presence of 5 μmol/L verapamil
  K^+ current at HP: −90 mV, relative value: 0.99 ± 0.02
[2]; 1.0 × 10^−5 mol/L, in the presence of 20 mmol/L tetraethylammonium
  K^+ current at HP: −90 mV, relative value: 1.19 ± 0.01
[2]; 1.0 × 10^−5 mol/L
  K^+ current at HP: −90 mV, relative value (before compound = 1): 0.96 ± 0.05
[2]; 1.0 × 10^−6 mol/L, in the presence of 5 μmol/L verapamil
  K^+ current at HP: −90 mV, relative value: 1.11 ± 0.03
[2]; 1.0 × 10^−6 mol/L, in the presence of 20 mmol/L tetraethylammonium
  K^+ current at HP: −90 mV, relative value: 1.19 ± 0.05
[2]; 1.0 × 10^−6 mol/L
  K^+ current at HP: −90 mV, relative value (before compound = 1): 1.06 ± 0.02
[2]; 1.0 × 10^−7 mol/L, in the presence of 5 μmol/L verapamil
  K^+ current at HP: −90 mV, relative value: 1.13 ± 0.02
[2]; 1.0 × 10^−7 mol/L, in the presence of 20 mmol/L tetraethylammonium
  K^+ current at HP: −90 mV, relative value: 1.10 ± 0.01
[2]; 1.0 × 10^−7 mol/L
  K^+ current at HP: −90 mV, relative value (before compound = 1): 1.12 ± 0.03
[2]; 1.0 × 10^−8 mol/L
  K^+ current at HP: −90 mV, relative value (before compound = 1): 0.99 ± 0.08
[2]; 2.5 × 10^−8 mol/L
  K^+ current at HP: −90 mV, relative value (before compound = 1): 1.07 ± 0.03
[2]; 5.0 × 10^−4 mol/L, in the presence of 5 μmol/L verapamil
  K^+ current at HP: −90 mV, relative value: 0.61 ± 0.05
[2]; 5.0 × 10^−4 mol/L, in the presence of 20 mmol/L tetraethylammonium
  K^+ current at HP: −90 mV, relative value: 0.29 ± 0.02
[2]; 5.0 × 10^−4 mol/L, in the presence of 60 mmol/L tetraethylammonium
  K^+ current at HP: −90 mV, relative value: 0.56 ± 0.05
[2]; 5.0 × 10^−5 mol/L, in the presence of 5 μmol/L verapamil
  K^+ current at HP: −90 mV, relative value: 0.94 ± 0.02
[2]; 5.0 × 10^−5 mol/L, in the presence of 20 mmol/L tetraethylammonium
  K^+ current at HP: −90 mV, relative value: 0.91 ± 0.04
[2]; 5.0 × 10^−5 mol/L, in the presence of 60 mmol/L tetraethylammonium
  K^+ current at HP: −90 mV, relative value: 1.15 ± 0.08
[2]; 5.0 × 10^−5 mol/L
  K^+ current at HP: −90 mV, relative value (before compound = 1): 0.83 ± 0.09
[2]; 5.0 × 10^−6 mol/L, in the presence of 5 μmol/L verapamil
  K^+ current at HP: −90 mV, relative value: 1.02 ± 0.03
[2]; 5.0 × 10^−6 mol/L, in the presence of 20 mmol/L tetraethylammonium
  K^+ current at HP: −90 mV, relative value: 1.16 ± 0.03
[2]; 5.0 × 10^−6 mol/L, in the presence of 60 mmol/L tetraethylammonium
  K^+ current at HP: −90 mV, relative value: 1.14 ± 0.05
[2]; 5.0 × 10^−7 mol/L, in the presence of 5 μmol/L verapamil
  K^+ current at HP: −90 mV, relative value: 1.17 ± 0.03
[2]; 5.0 × 10^−7 mol/L, in the presence of 20 mmol/L tetraethylammonium
  K^+ current at HP: −90 mV, relative value: 1.15 ± 0.04
[2]; 5.0 × 10^−7 mol/L, in the presence of 60 mmol/L tetraethylammonium
  K^+ current at HP: −90 mV, relative value: 1.11 ± 0.03
[2]; 5.0 × 10^−7 mol/L
  K^+ current at HP: −90 mV, relative value (before compound = 1): 1.15 ± 0.03
[2]; 5.0 × 10^−8 mol/L, in the presence of 5 μmol/L verapamil
  K^+ current at HP: −90 mV, relative value: 1.03 ± 0.02
[2]; 5.0 × 10^−8 mol/L, in the presence of 20 mmol/L tetraethylammonium
  K^+ current at HP: −90 mV, relative value: 1.08 ± 0.02
[2]; 5.0 × 10^−8 mol/L, in the presence of 60 mmol/L tetraethylammonium
  K^+ current at HP: −90 mV, relative value: 1.08 ± 0.02
[2]; 5.0 × 10^−8 mol/L
  K^+ current at HP: −90 mV, relative value (before compound = 1): 1.07 ± 0.02
[2]; 5.0 × 10^−9 mol/L, in the presence of 20 mmol/L tetraethylammonium
  K^+ current at HP: −90 mV, relative value: 1.02 ± 0.02
[2]; 5.0 × 10^−9 mol/L
  K^+ current at HP: −90 mV, relative value (before compound = 1): 1.01 ± 0.03
[2]; unidentified DRG cells, HP −90 mV
  peak compound concentration for increase of slowly-inactivating A-type K^+ currents: 1e-07 to 5e-07 mol/L
[3]; 0.001 mg/kg p.o., after 1 hour
  micturition contraction, relative to before administration = 100: 99.3 ± 2.3%
  pre-micturition contraction, relative to before administration = 100: 105.9 ± 7.8%
[3]; [4]
  micturition contraction, relative to before administration = 100: 101.5 ± 3.3%
  pre-micturition contraction, relative to before administration = 100: 100.3 ± 10.0%
[3]; [5]
  micturition contraction, relative to before administration = 100: 98.7 ± 5.2%
  pre-micturition contraction, relative to before administration = 100: 104.2 ± 10.2%
[3]; 0.01 mg/kg p.o., after 1 hour
  micturition contraction, relative to before administration = 100: 99.6 ± 1.2%
  pre-micturition contraction, relative to before administration = 100: 59.5 ± 4.1 %
[3]; 0.01 mg/kg p.o., after 3 hours
  micturition contraction, relative to before administration = 100: 92.6 ± 3.2%
  pre-micturition contraction, relative to before administration = 100: 69.5 ± 4.4 %
[3]; 0.01 mg/kg p.o., after 5 hours
  micturition contraction, relative to before administration = 100: 90.1 ± 4.3%
  pre-micturition contraction, relative to before administration = 100: 67.8 ± 5.5 %
[3]; 0.1 mg/kg p.o., after 1 hour
  micturition contraction, relative to before administration = 100: 106.2 ± 9.2%
  pre-micturition contraction, relative to before administration = 100: 55.8 ± 8.2 %
[3]; 0.1 mg/kg p.o., after 3 hours
  micturition contraction, relative to before administration = 100: 105.2 ± 9.6%
  pre-micturition contraction, relative to before administration = 100: 66.2 ± 4.7 %
[3]; 0.1 mg/kg p.o., after 5 hours
  micturition contraction, relative to before administration = 100: 100.1 ± 8.6%
  pre-micturition contraction, relative to before administration = 100: 69.2 ± 7.4 %
[3]; rats with hypertrophic bladder
  effect on micturition contraction: had no influence
  effect on pre-micturition contraction (detrusor instability): inhibited
